Source: patent publication US10947213B1 (Merck Patent GmbH, priority 2015, dated 2021)
Structures can show the parent of a compound that is named as a salt.

These molecules were tested against T1, TLR7/NFKb HEK cells (Homo sapiens, UniProt Q9NYK1) (assay: HEK Cell Assay (TLR7/NFKb reporter, Steady-Glo luciferase readout)). Conditions: 30 min compound preincubation, then R*48 agonist for 5 hours, read-out: Potency.
T1 construct: expressed in transfected cells; host or cells: HEK cells (TLR7/NFKb reporter line)
T1 sequence (Q9NYK1 27-1049): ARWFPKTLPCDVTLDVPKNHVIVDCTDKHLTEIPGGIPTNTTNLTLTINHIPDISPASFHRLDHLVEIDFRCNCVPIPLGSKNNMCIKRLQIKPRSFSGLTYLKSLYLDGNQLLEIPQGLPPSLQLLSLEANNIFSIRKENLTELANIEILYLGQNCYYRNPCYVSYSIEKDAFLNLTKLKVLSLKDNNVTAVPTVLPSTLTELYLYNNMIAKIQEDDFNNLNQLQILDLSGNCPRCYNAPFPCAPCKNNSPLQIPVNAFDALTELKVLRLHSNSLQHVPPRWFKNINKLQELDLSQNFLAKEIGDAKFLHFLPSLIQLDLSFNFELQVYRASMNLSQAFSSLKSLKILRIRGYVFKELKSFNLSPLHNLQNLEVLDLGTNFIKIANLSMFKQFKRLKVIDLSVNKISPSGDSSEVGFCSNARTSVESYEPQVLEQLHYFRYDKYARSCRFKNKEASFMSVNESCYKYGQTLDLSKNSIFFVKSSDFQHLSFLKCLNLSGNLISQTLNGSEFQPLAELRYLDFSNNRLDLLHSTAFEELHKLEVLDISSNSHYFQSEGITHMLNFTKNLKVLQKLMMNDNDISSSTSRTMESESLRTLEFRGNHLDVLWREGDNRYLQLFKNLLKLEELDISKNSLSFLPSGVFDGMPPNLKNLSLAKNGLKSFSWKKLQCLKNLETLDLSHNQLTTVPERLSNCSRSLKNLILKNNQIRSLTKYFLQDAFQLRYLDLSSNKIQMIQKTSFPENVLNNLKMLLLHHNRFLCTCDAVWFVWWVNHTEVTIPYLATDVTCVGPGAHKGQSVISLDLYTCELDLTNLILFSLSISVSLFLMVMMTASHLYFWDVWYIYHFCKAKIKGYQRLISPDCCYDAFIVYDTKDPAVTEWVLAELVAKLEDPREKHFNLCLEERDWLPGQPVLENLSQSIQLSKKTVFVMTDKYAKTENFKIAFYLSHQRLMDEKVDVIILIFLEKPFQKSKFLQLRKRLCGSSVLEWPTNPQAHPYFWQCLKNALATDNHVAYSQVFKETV
Type: cell-based
How it was run: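 Steady-Glo luminescence after 5 h stimulation with R*48 agonist, following 30 min compound preincubation. Assay run in HEK cells carrying a TLR7/NFKb luciferase reporter, plated at 5000 cells/well and grown 24 h at 37° C (10% CO2) before treatment.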

Structure (SMILES)	IC50 [nM]
N#Cc1ccc(N2CCC(CNC(=O)CN3CCC3)CC2)c2cccnc12 [Compound 417, 2-Azetidin-1-yl-N-[1-(8-cyano-quinolin-5-yl)-piperidin-4-ylmethyl]-acetamide]	< 1000
CC(C(=O)N[C@@H]1C[C@H](C)CN(c2ccc(C(F)(F)F)c3nccnc23)C1)N1CCC(O)CC1 (single isomer, unassigned) [Compound 372]	< 1000
C[C@H]1C[C@@H](N)CN(c2ccc(C#N)c3nsnc23)C1 [Compound 552, 7-((3R,5S)-3-Amino-5-methyl-piperidin-1-yl)-benzo[1,2,5]thiadiazole-4-carbonitrile hydrochloride]	< 1000
CN(C)CC(=O)NC1CN(c2ccc(C#N)c3ncccc23)CC(F)(F)C1 (single isomer, unassigned) [Compound 449]	< 1000
C[C@H]1C[C@@H](NC(=O)C2(N)COC2)CN(c2ccnc3nccnc23)C1 [Compound 128, 3-amino-N-[(3R,5S)-5-methyl-1-[pyrido[2,3-b]pyrazin-8-yl]piperidin-3-yl]oxetane-3-carboxamide]	> 10000
C[C@H]1C[C@@H](NC(=O)CN2CC(N)C2)CN(c2ccc(C(F)F)c3ncccc23)C1 [Compound 304, 2-(3-aminoazetidin-1-yl)-N-[(3R,5S)-1-[8-(difluoromethyl)quinolin-5-yl]-5-methylpiperidin-3-yl]acetamide]	< 1000
C[C@H]1C[C@@H](NC2CCC(O)CC2)CN(c2ccc(C#N)c3nccnc23)C1 (single isomer, unassigned) [Compound 135]	< 1000
C[C@H]1C[C@@H](NC(=O)CC(C)(C)CN)CN(c2ccc(C(F)F)c3nccnc23)C1 [Compound 327, 4-amino-N-[(3R,5S)-1-[8-(difluoromethyl)quinoxalin-5-yl]-5-methylpiperidin-3-yl]-3,3-dimethylbutanamide]	< 1000
CC(C(=O)N[C@@H]1C[C@H](C)CN(c2ccc(C(F)F)c3ncccc23)C1)N1CC(F)(F)C1 (stereo partly drawn) [Compound 311, 2-(3,3-difluoroazetidin-1-yl)-N-[(3R,5S)-1-[8-(difluoromethyl)quinolin-5-yl]-5-methylpiperidin-3-yl]propanamide]	1000 to 10000
O=C(CCCN1CCCCC1)N1CCN(c2ccnc3nccnc23)CC1 [Compound 400, 4-Piperidin-1-yl-1-(4-pyrido[2,3-b]pyrazin-8-yl-piperazin-1-yl)-butan-1-one]	> 10000
CC(C(=O)N[C@@H]1C[C@H](C)CN(c2ccc(C(F)F)c3ncccc23)C1)N1CC(N)C1 (stereo partly drawn) [Compound 305, 2-(3-aminoazetidin-1-yl)-N-[(3R,5S)-1-[8-(difluoromethyl)quinolin-5-yl]-5-methylpiperidin-3-yl]propanamide]	< 1000
C[C@H]1C[C@@H](NC(=O)CC2C3CC2CN(C)C3)CN(c2ccc(C#N)c3nccnc23)C1 (single isomer, unassigned) [Compound 358]	< 1000
C[C@H]1C[C@@H](NC(=O)CC(C)(C)C)CN(c2ccc(C(N)=O)c3ncccc23)C1 [Compound 182, 5-[(3R,5S)-3-(3,3-dimethylbutanamido)-5-methylpiperidin-1-yl]quinoline-8-carboxamide]	1000 to 10000
FC(F)(F)c1ccc2nccc(N3CCC(CNCCN4CCCCC4)CC3)c2c1 [Compound 387, (2-Piperidin-1-yl-ethyl)-[1-(6-trifluoromethyl-quinolin-4-yl)-piperidin-4-ylmethyl]-amine]	1000 to 10000
C[C@H]1C[C@@H](NC2CCOC2)CN(c2ccc(C#N)c3nccnc23)C1 (stereo partly drawn) [Compound 138, 8-[(3S,5R)-3-methyl-5-[(oxolan-3-yl)amino]piperidin-1-yl]quinoxaline-5-carbonitrile]	< 1000
C[C@H]1C[C@@H](NC(=O)[C@@H](C)N)CN(c2ccc(C#N)c3nccnc23)C1 [Compound 24, (R)-2-amino-N-((3R,5S)-1-(8-cyanoquinoxalin-5-yl)-5-methylpiperidin-3-yl)propanamide]	< 1000
C[C@H]1C[C@@H](NC(=O)CN(C)C)CN(c2c(F)cc(C#N)c3nccnc23)C1 [Compound 347, N-[(3R,5S)-1-(8-cyano-6-fluoroquinoxalin-5-yl)-5-methylpiperidin-3-yl]-2-(dimethylamino)acetamide]	1000 to 10000
C[C@H]1C[C@@H](NC(=O)CN2CCN(C)CC2)CN(c2ccc(C#N)c3nccnc23)C1 [Compound 109, N-[(3R,5S)-1-(8-cyanoquinoxalin-5-yl)-5-methylpiperidin-3-yl]-2-(4-methylpiperazin-1-yl)acetamide]	< 1000
N[C@H]1C[C@@H](C2CC2)CN(c2ccc(C(F)(F)F)c3ncccc23)C1 (relative stereo) [Compound 331, cis-5-cyclopropyl-1-[8-(trifluoromethyl)quinolin-5-yl]piperidin-3-amine]	< 1000

Now from value to molecule:

IC50 [nM]	Structure (SMILES)
< 1000	C[C@H]1C[C@@H](NC(=O)CN2CCC(F)(F)CC2)CN(c2ccc(C#N)c3nccnc23)C1 [Compound 348, N-[(3R,5S)-1-(8-cyanoquinoxalin-5-yl)-5-methylpiperidin-3-yl]-2-(4,4-difluoropiperidin-1-yl)acetamide]
< 1000	CN1CCN(CC(=O)NC2CN(c3ccc(C#N)c4nccnc34)CC(F)(F)C2)CC1 (centres unmarked) [Compound 503, N-[1-(8-Cyano-quinoxalin-5-yl)-5,5-difluoro-piperidin-3-yl]-2-(4-methyl-piperazin-1-yl)-acetamide]
1000 to 10000	N#Cc1ccc(N2CC(NC3CCC(O)CC3)CC(C(F)(F)F)C2)c2nccnc12 (single isomer, unassigned) [Compound 92, cis,trans-8-(-3-((4-hydroxycyclohexyl)amino)-5-(trifluoromethyl)piperidin-1-yl)quinoxaline-5-carbonitrile]
< 1000	CC1CCCC(C)N1CCNC(=O)C1CCN(c2ccc(C#N)c3ncccc23)CC1 (centres unmarked) [Compound 414, 1-(8-Cyano-quinolin-5-yl)-piperidine-4-carboxylic Acid [2-(2,6-dimethyl-piperidin-1-yl)-ethyl]-amide]
< 1000	C[C@H]1C[C@@H](NC(=O)C(C)(C)C2CCN(C)CC2)CN(c2ccc(C(F)(F)F)c3nccnc23)C1 [Compound 355, 2-methyl-N-[(3R,5S)-5-methyl-1-[8-(trifluoromethyl)quinoxalin-5-yl]piperidin-3-yl]-2-(1-methylpiperidin-4-yl)propanamide]
1000 to 10000	CN1CCC(CNC(=O)C2CN(c3ccc(C#N)c4ncccc34)CC(F)(F)C2)CC1 (single isomer, unassigned) [Compound 545]
< 1000	N#Cc1ccc(N2CC(NC(=O)C(N)C3CC3)CC(C(F)(F)F)C2)c2cccnc12 (single isomer, unassigned) [Compound 487]
1000 to 10000	CN1CCC(NC2CC(C(F)(F)F)CN(c3ccc(C#N)c4nccnc34)C2)C1=O (single isomer, unassigned) [Compound 224]
< 1000	C[C@H]1C[C@@H](NC(=O)C2(O)CC2)CN(c2ccc(C(F)(F)F)c3ncccc23)C1 [Compound 241, 1-hydroxy-N-[(3R,5S)-5-methyl-1-[8-(trifluoromethyl)quinolin-5-yl]piperidin-3-yl]cyclopropane-1-carboxamide]
1000 to 10000	CC(O)C(=O)N[C@@H]1C[C@H](C)CN(c2ccc(C(F)F)c3nccnc23)C1 (stereo partly drawn) [Compound 79, N-[(3R,5S)-1-[8-(difluoromethyl)quinoxalin-5-yl]-5-methylpiperidin-3-yl]-2-hydroxypropanamide]
